Where a name gives a salt, the structure may show the parent alone. Read-outs that look alike come from different tables or passages of the source.
Molecular target: T1, METTL3/14 (Homo sapiens, UniProt Q86U44)
T1 construct: The enzyme used was full-length his-tagged METTL3; His; made in house
Experiment: METTL3/14 methyltransferase assay (METTL3_14 RFMS, RapidFire mass spectrometry);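 note: recombinant His-tagged METTL3 with FLAG-tagged METTL14 from baculovirus, SAH product quantified by mass spectrometry against isotope-labelled internal standards, 60 min at room temperature, scaled between no-RNA and DMSO-only wells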
Type: biochemical
Conditions: read-out: METTL3_14 RFMS IC50

[1] = 5 nM METTL3/14, 0.2 μM RNA substrate, 0.5 μM SAM, lower limit of the assay IC50=5 nM, Compounds 63-265
[2] = 5 nM METTL3/14, 0.2 μM RNA substrate, 0.5 μM SAM, lower limit of the assay IC50=5 nM, Compounds 1-62
[3] = 5 nM METTL3/14, 0.2 μM RNA substrate, 0.5 μM SAM, lower limit of the assay IC50=5 nM, Compounds 266-351

T1 sequence (Q86U44 whole entry): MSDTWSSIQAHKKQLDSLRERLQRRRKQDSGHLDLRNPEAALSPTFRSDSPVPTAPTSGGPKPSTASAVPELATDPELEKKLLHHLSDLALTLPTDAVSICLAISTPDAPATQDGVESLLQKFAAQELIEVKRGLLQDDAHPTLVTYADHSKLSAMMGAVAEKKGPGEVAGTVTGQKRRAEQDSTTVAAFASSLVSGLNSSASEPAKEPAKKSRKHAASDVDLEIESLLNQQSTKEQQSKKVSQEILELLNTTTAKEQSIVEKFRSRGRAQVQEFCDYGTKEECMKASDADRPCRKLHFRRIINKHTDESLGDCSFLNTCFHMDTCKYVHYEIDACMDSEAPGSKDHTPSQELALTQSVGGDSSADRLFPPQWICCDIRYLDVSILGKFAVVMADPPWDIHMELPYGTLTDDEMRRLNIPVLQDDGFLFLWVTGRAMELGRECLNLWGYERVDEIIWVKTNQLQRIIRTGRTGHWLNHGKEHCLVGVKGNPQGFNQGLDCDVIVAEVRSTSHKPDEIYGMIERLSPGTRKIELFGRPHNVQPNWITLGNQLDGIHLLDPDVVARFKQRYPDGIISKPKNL
T1 sequence (Q9HCE5 whole entry partner): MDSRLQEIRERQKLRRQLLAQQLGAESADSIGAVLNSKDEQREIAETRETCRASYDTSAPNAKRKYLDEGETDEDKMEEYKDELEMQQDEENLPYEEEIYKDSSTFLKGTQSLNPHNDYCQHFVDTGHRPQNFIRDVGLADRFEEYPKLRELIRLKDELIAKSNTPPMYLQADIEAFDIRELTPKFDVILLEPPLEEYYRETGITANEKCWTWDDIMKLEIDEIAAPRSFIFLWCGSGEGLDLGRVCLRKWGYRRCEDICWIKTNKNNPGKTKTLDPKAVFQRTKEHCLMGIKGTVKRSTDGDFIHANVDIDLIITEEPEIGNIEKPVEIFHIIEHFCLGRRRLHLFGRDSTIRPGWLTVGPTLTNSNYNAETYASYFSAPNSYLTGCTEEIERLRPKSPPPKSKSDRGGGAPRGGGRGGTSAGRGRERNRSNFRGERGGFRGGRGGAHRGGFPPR

Structure (SMILES)	IC50 [1] [nM]	other results
O=C(NCc1cn2cc(CN3CCN(c4ccccc4)CC3)ccc2n1)c1cc(=O)n2ccccc2n1 [Compound 130, 4-oxo-N-({6-[(4-phenylpiperazin-1-yl)methyl]imidazo [1,2-a]pyridin-2-yl}methyl)-4H-pyrido[1,2-a] pyrimidine-2-carboxamide]	206	
O=C(NCc1cn2cc(CN3C4CCC3CC4)ccc2n1)c1cc(=O)n2ccccc2n1 [Compound 169, N-{[6-({7-azabicyclo [2.2.1]heptan-7-yl}methyl)imidazo[1,2-a]pyridin-2-yl]methyl}-4-oxo-4H-pyrido[1,2-a]pyrimidine-2-carboxamide]	391	
CS(=O)(=O)CCNCc1ccc2nc(CNC(=O)c3cc(=O)n4ccccc4n3)cn2c1 [Compound 96, N-[(6-{[(2-methane-sulfonylethyl)amino]methyl}imidazo[1,2-a]pyridin-2-yl)methyl]-4-oxo-4H-pyrido [1,2-a]pyrimidine-2-carboxamide]	947	
CCN(CC)Cc1ccc2nc(CNC(=O)c3cc(=O)n4ccccc4n3)cn2c1 [Compound 132, N-({6-[(diethylamino)methyl]imidazo [1,2-a]pyridin-2-yl}methyl)-4-oxo-4H-pyrido[1,2-a] pyrimidine-2-carboxamide]	917	
O=C(NCc1cn2cc(CNCc3ccc(Cl)cc3)ccc2n1)c1cc(=O)n2ccccc2n1 [Compound 73, N-{[6-({[(4-chlorophenyl)methyl]amino}methyl)imidazo [1,2-a]pyridin-2-yl]methyl}-4-oxo-4H-pyrido [1,2-a]pyrimidine-2-carboxamide]		IC50: 64.9 nM
O=C(NCc1cn2cc(CNC3CCCOC3)ccc2n1)c1cc(=O)n2ccccc2n1 (stereo not drawn) [Compound 124, N-[(6-{[(oxan-3-yl)amino]methyl}imidazo[1,2-a]pyridin-2-yl)methyl]-4-oxo-4H-pyrido [1,2-a]pyrimidine-2-carboxamide]	119	
O=C(NCc1cn2ccc(F)cc2n1)c1cccc2[nH]ncc12 [Compound 5, N-({7-fluoroimidazo[1,2-a]pyridin-2-yl}methyl)-1H-indazole-4-carboxamide]		IC50 [2]: 9450 nM
COc1cccc(-c2ccc3nc(CNC(=O)c4cccc5[nH]ncc45)cn3c2)c1 [Compound 34, N-{[6-(3-methoxyphenyl)imidazo[1,2-a]pyridin-2-yl]methyl}-1H-indazole-4-carboxamide]		IC50 [2]: 5350 nM
CC(O)c1ccc2nc(CNC(=O)c3cc(=O)n4ccccc4n3)cn2c1 (stereo not drawn) [Compound 57, N-{[6-(1-hydroxyethyl)imidazo[1,2-a]pyridin-2-yl]methyl}-oxo-4H-pyrido[1,2-a]pyrimidine-2-carboxamide]		IC50 [2]: 702 nM
CC(=O)NCc1ccc2nc(CNC(=O)c3cccc4[nH]ncc34)cn2c1 [Compound 40, N-{[6-(acetamidomethyl)imidazo[1,2-a]pyridin-2-yl]methyl}-1H-indazole-4-carboxamide]		IC50 [2]: 7390 nM
O=C(NCc1cn2cc(C3CC3)ccc2n1)c1cc(=O)n2ccccc2n1 [Compound 59, N-({6-cyclopropylimidazo[1,2-a]pyridin-2-yl}methyl)-4-oxo-4H-pyrido[1,2-a]pyrimidine-2-carboxamide]		IC50 [2]: 939 nM
COc1ccn2c(=O)cc(C(=O)NCc3cn4cc(C)ccc4n3)nc2c1 [Compound 19, 8-methoxy-N-({6-methylimidazo[1,2-a]pyridin-2-yl}methyl)-4-oxo-4H-pyrido[1,2-a]pyrimidine-2-carboxamide]		IC50 [2]: 2600 nM
CC1(C)CCN(Cc2ccc3nc(CNC(=O)c4cc(OCCOCCN)cc5[nH]ncc45)cn3c2)CC1 [Example 312, 6-[2-(2-aminoethoxy)ethoxy]-N-[[6-[(4,4-dimethyl-1-piperidyl)methyl]imidazo[1,2-a]pyridin-2-yl]methyl]-1H-indazole-4-carboxamide trihydrochloride]		IC50 [3]: 52.1 nM
CC1CNC(c2ccc3nc(CNC(=O)c4cc(=O)n5ccccc5n4)cn3c2)CO1 (stereo not drawn) [Example 331]		IC50 [3]: 3440 nM
O=C(NCc1cn2cc(CNC[C@H](O)C(F)(F)F)ccc2n1)c1cc(=O)n2ccccc2n1 [Compound 125, 4-oxo-N-{[6-({[(2S)-3,3,3-trifluoro-2-hydroxypropyl]amino}methyl)imidazo[1,2-a]pyridin-2-yl]methyl}-4H-pyrido[1,2-a] pyrimidine-2-carboxamide]	221	
O=C(NCc1cn2cc(CNCc3ccccc3F)ccc2n1)c1cc(=O)n2ccccc2n1 [Compound 77, N-{[6-({[(2-fluorophenyl)methyl]amino}methyl)imidazo [1,2-a]pyridin-2-yl]methyl}-4-oxo-4H-pyrido[1,2-a]pyrimidine-2-carboxamide]	84	
CC(C)(C)CNCc1ccc2nc(Cn3cc(-c4cc(C5CC5)cc5[nH]ncc45)nn3)cn2c1 [Example 321, N-[[2-[[4-(6-cyclopropyl-1H-indazol-4-yl)triazol-1-yl]methyl]imidazo[1,2-a]pyridin-6-yl]methyl]-2,2-dimethyl-propan-1-amine]		IC50 [3]: 13.2 nM
CC1(C)CCN(Cc2ccc3nc(CNC(=O)c4cc(=O)c5c(F)cccc5o4)cn3c2)CC1 [Example 310, N-[[6-[(4,4-dimethyl-1-piperidyl)methyl]imidazo[1,2-a]pyridin-2-yl]methyl]-5-fluoro-4-oxo-chromene-2-carboxamide]		IC50 [3]: 186 nM
O=C(NCc1cn2cc(CNCC3CCCCO3)ccc2n1)c1cc(=O)n2ccccc2n1 (stereo not drawn) [Compound 88, N-{[6-({[(oxan-2-yl)methyl]amino}methyl)imidazo[1,2-a]pyridin-2-yl]methyl}-4-oxo-4H-pyrido[1,2-a] pyrimidine-2-carboxamide]	114	

Further lines, with some results ahead:

IC50 [1] [nM]	Structure (SMILES)	other results
100	CC(C)(C)[C@@H]1COC[C@H](c2ccc3nc(CNC(=O)c4cc(=O)n5ccccc5n4)cn3c2)N1 [Example 229, N-({6-[(3S,5R)-5-tert-butylmorpholin-3-yl]imidazo[1,2-a]pyridin-2-yl}methyl)-4-oxo-4H-pyrido[1,2-a]pyrimidine-2-carboxamide]	
597	O=C(NCc1cn2cc(CNc3ccc(F)cn3)ccc2n1)c1cc(=O)n2ccccc2n1 [Compound 196, N-[(6-{[(5-fluoropyridin-2-yl)amino]methyl}imidazo[1,2-a]pyridin-2-yl)methyl]-4-oxo-4H-pyrido[1,2-a] pyrimidine-2-carboxamide]	
29.4	O=C(NCc1cn2cc(CNCC3CCCCC3)ccc2n1)c1cc(=O)c2ccccc2o1 [Compound 170, N-[(6-{[(cyclohexylmethyl)amino]methyl}imidazo[1,2-a]pyridin-2-yl)methyl]-4-oxo-4H-chromene-2-carboxamide]	
16.3	CC(C)CNCc1ccc2nc(CNC(=O)c3cc(=O)n4ccccc4n3)cn2c1 [Compound 151, N-[(6-{[(2-methylpropyl)amino]methyl}imidazo[1,2-a]pyridin-2-yl)methyl]-4-oxo-4H-pyrido[1,2-a] pyrimidine-2-carboxamide]	
480	O=C(NCc1cn2cc(CN3CCCC3)ccc2n1)c1cc(=O)n2ccccc2n1 [Compound 133, 4-oxo-N-({6-[(pyrrolidin-1-yl)methyl]imidazo[1,2-a]pyridin-2-yl}methyl)-4H-pyrido[1,2-a] pyrimidine-2-carboxamide]	
42.9	O=C(NCc1cn2cc(CNCC3CC3(F)F)ccc2n1)c1cc(=O)n2ccccc2n1 (stereo not drawn) [Compound 157, N-{[6-({[(2,2-difluoro-cyclopropyl)methyl]amino}methyl)imidazo [1,2-a]pyridin-2-yl]methyl}-4-oxo-4H-pyrido [1,2-a]pyrimidine-2-carboxamide]	
19.5	CC1(C)CC1CNCc1ccc2nc(CNC(=O)c3cc(=O)n4ccccc4n3)cn2c1 (stereo not drawn) [Compound 159, N-{[6-({[(2,2-dimethyl-cyclopropyl)methyl]amino}methyl)imidazo [1,2-a]pyridin-2-yl]methyl}-4-oxo-4H-pyrido [1,2-a]pyrimidine-2-carboxamide]	
1260	COC(=O)C1CCCN(Cc2ccc3nc(CNC(=O)c4cc(=O)n5ccccc5n4)cn3c2)C1 (stereo not drawn) [Compound 200, methyl 1-({2-[({4-oxo-4H-pyrido[1,2-a]pyrimidin-2-yl}formamido)methyl]imidazo [1,2-a]pyridin-6-yl}methyl) piperidine-3-carboxylate]	
1890	O=C(NCc1cn2cc(COCc3ccccc3)ccc2n1)c1cc(=O)n2ccccc2n1 [Compound 177]	
33.9	CC1(CNCc2ccc3nc(CNC(=O)c4cc(=O)c5ccccc5o4)cn3c2)CCCCC1 [Compound 222, N-{[6-({[(1-methylcyclohexyl)methyl]amino}methyl)imidazo [1,2-a]pyridin-2-yl]methyl}-4-oxo-4H-chromene-2-carboxamide]	
168	O=C(NCc1cn2cc(CNCc3ccc(Cl)cc3)ccc2n1)c1cc(=O)c2ccccc2o1 [Compound 220, N-{[6-({[(4-chlorophenyl)methyl]amino}methyl)imidazo[1,2-a]pyridin-2-yl]methyl}-4-oxo-4H-chromene-2-carboxamide]	
889	O=C(NCc1cn2cc(CNCC3CCCCC3)ccc2n1)c1cc(=O)c2ccc(F)cc2o1 [Compound 180, N-[(6-{[(cyclohexylmethyl)amino]methyl}imidazo [1,2-a]pyridin-2-yl)methyl]-7-fluoro-4-oxo-4H-chromene-2-carboxamide]	
850	O=C(NCc1cn2cc(CNC(=O)C3CCCCC3)ccc2n1)c1cc(=O)n2ccccc2n1 [Compound 238, N-({6-[(cyclohexylformamido)methyl]imidazo[1,2-a]pyridin-2-yl}methyl)-4-oxo-4H-pyrido[1,2-a]pyrimidine-2-carboxamide]	
14.5	CC1(C)CCCN(Cc2ccc3nc(CNC(=O)c4cc(=O)n5ccccc5n4)cn3c2)C1 [Compound 141, N-({6-[(3,3-dimethylpiperidin-1-yl)methyl]imidazo[1,2-a]pyridin-2-yl}methyl)-4-oxo-4H-pyrido[1,2-a]pyrimidine-2-carboxamide]	
